Assay results reported in patent publication US20110171329A1, “METHOD FOR TREATMENT OF NEURAL INJURIES” (priority 2009, published 2011).

Tests used:
[1] = tested on: spinal cord mixed neuronal-glial cultures; experiment: DCF assay of toxin-induced free radical formation in spinal cord mixed neuronal-glial cultures; format: cell-based, rat
Procedure: (§1) Mixed neuron-glia cell cultures were prepared from the spinal, mesencephalic and cortical regions of an embryonic Sprague-Dawley rat fetus (gestation day 15), respectively, as described in Tsai et al. (Ann. N.Y. Acad. Sci. 1042 (2005):338-348). Briefly, cells were dissociated with a mixture of papain/protease/deoxyribonuclease I (0.1%:0.1%:0.03%) and plated onto poly-lysine coated dishes at a density of 1 to 2×10^5 cells/cm^2 with Dulbecco's modified Eagle's medium (DMEM) supplemented with 10% fetal bovine serum (FBS). On the second day after cell seeding, the cultures were maintained in DMEM+10% FBS or in DMEM supplemented with N2 (Invitrogen, Carlsbad, Calif.) as serum-free medium.
(§2) On the 2nd or 3rd day after cell seeding, the cultures were firstly loaded with 50 μM DCFH-DA in serum-free medium (DMEM+N2) for 1 hr. The medium was then replaced with growth medium containing H2O2 (1 mM) or t-BOOH (0.75 mM) and the cultures were maintained in the growth medium for 2 hrs. HD2 (20 to 200 μg/ml) and baicalein (2 or 10 μM) were then added to the cultures within 10 minutes after the toxin treatment started, respectively. The resulted fluorescent DCF levels were measured by a fluorescence plate reader (ex/em: 485 nm/538 nm). FIGS. 5 and 6 show the results of the measurement.

[2] = tested on: cortical mixed neuronal-glial cultures; experiment: DCF assay of toxin-induced free radical formation in cortical mixed neuronal-glial cultures; format: cell-based, rat
Procedure: as §1, §2

[3] = H2O2 1 mM, baicalein 2 and 10 μM
[4] = t-BOOH 0.75 mM, baicalein 2 or 10 μM, P<0.01

## O=c1cc(-c2ccccc2)oc2cc(O)c(O)c(O)c12 [baicalein]
[1]; [3]
  free radical level induced by H2O2: significantly reduced
[1]; [4]
  free radical level induced by t-BOOH: significantly inhibited
[2]; [3]
  free radical level induced by H2O2: significantly reduced
[2]; [4]
  free radical level induced by t-BOOH: significantly inhibited
